Experimental data taken from patent publication US10670605B2, “Cysteine reactive probes and uses thereof” (The Scripps Research Institute, priority 2015, dated 2020).
One block for each compound: values may come before it.

Legend:
Assay in all cases: Competitive isoTOP-ABPP, cell lysates;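 as to isoTOP-ABPP reactivity profile ratio, P09211 C48: Heavy/light ratio DMSO over fragment-treated so higher means more cysteine engagement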;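 as to isoTOP-ABPP reactivity profile ratio, P63244 C182: Heavy/light ratio DMSO over fragment-treated so higher means more cysteine engagement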
Assay type in all cases: binding
UBE2S C118 (Q16763) = target: T1, UBE2S C118 (Q16763) (Homo sapiens, UniProt Q16763)
T1 sequence (Q16763 1-222): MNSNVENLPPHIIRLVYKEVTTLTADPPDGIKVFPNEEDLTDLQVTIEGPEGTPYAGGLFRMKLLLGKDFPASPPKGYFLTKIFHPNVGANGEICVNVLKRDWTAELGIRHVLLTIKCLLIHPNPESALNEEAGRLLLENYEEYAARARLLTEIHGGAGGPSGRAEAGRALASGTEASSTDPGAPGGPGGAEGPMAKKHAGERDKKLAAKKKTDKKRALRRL

GNB2L1 C182 (P63244) = GNB2L1 C182 (P63244) (Homo sapiens, UniProt P63244); settings: for isoTOP-ABPP reactivity ratio, P63244_C182 / isoTOP-ABPP reactivity profile ratio, P63244_C182: 500 μm;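 as to isoTOP-ABPP reactivity profile ratio, P63244 C182: Heavy/light ratio DMSO over fragment-treated so higher means more cysteine engagement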
UCHL3 C95 (P15374) = target: T2, UCHL3 C95 (P15374) (Homo sapiens, UniProt P15374)
T2 sequence (P15374 1-230): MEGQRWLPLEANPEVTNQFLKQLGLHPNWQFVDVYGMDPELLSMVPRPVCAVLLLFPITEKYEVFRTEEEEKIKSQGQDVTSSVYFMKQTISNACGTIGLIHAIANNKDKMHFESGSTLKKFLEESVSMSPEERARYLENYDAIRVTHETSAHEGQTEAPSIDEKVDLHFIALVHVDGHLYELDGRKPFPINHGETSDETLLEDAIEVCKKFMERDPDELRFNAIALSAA

USP22 C171 (Q9UPT9) = target: T3, USP22 C171 (Q9UPT9) (Homo sapiens, UniProt Q9UPT9)
T3 sequence (Q9UPT9 1-525): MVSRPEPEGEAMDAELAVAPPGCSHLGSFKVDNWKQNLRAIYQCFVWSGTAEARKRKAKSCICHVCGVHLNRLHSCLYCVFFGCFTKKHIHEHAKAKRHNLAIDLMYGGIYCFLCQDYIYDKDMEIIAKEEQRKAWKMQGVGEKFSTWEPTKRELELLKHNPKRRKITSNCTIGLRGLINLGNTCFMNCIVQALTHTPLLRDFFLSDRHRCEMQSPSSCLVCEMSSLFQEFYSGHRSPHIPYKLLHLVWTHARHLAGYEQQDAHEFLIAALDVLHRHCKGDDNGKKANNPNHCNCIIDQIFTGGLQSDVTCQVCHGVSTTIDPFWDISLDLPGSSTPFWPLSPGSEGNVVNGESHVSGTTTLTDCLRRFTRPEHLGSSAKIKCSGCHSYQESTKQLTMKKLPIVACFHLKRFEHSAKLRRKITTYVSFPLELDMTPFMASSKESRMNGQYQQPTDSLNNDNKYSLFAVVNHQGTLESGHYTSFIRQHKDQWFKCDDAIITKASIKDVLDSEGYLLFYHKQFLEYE

SAMHD1 C522 (Q9Y3Z3) = SAMHD1 C522 (Q9Y3Z3) (Homo sapiens, UniProt Q9Y3Z3)
SAMHD1 C522 (Q9Y3Z3), sequence (Q9Y3Z3 whole entry): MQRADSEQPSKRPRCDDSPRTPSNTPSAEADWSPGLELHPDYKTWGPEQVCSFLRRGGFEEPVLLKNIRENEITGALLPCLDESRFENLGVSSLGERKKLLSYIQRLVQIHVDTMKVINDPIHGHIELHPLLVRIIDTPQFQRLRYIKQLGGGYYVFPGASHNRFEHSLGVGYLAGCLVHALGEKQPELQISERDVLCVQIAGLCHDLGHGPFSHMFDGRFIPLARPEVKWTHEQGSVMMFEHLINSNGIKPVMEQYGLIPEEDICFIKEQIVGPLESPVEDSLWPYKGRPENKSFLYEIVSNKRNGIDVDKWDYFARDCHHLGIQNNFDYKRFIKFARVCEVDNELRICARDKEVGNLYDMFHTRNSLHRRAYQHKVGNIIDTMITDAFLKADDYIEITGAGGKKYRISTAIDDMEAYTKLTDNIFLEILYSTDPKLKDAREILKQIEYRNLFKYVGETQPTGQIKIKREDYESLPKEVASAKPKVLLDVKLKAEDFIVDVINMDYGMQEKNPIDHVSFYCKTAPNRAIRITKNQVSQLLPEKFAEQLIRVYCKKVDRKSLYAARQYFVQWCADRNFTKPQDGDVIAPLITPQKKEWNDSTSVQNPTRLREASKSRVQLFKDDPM

ZNF217 C286 (O75362) = ZNF217 C286 (O75362) (Homo sapiens, UniProt O75362); settings: for isoTOP-ABPP reactivity ratio, O75362_C286 / isoTOP-ABPP reactivity profile ratio, O75362_C286: 500 μm
ZNF217 C286 (O75362), sequence (O75362 whole entry): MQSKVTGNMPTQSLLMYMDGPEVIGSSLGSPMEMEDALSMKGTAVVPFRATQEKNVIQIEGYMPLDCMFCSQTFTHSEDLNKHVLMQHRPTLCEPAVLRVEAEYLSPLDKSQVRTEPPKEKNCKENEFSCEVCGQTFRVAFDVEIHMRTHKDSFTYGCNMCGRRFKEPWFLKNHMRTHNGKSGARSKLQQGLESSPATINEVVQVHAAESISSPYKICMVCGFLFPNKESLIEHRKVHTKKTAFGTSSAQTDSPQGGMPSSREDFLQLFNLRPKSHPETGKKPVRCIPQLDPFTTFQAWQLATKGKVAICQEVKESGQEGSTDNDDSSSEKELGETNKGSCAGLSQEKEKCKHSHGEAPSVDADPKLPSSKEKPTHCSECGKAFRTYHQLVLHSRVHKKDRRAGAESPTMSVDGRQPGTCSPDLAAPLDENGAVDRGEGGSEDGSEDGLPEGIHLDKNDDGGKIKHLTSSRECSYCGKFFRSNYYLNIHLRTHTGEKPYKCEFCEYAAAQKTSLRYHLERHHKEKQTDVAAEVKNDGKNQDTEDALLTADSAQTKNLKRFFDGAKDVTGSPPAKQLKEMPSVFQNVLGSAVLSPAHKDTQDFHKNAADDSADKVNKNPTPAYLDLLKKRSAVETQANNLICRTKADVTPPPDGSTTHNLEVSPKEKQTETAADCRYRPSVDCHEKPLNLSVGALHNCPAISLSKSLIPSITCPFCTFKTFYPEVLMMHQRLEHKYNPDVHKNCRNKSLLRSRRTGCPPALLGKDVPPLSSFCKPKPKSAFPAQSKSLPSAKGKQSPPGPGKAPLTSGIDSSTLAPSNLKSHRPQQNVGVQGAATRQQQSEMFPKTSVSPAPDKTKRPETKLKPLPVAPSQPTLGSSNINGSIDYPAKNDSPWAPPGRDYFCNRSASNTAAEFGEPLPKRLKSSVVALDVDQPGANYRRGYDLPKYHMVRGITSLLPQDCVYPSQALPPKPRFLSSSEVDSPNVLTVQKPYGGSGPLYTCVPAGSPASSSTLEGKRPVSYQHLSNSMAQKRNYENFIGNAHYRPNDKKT

IDH1 C269 (O75874) = IDH1 C269 (O75874) (Homo sapiens, UniProt O75874)
IDH1 C269 (O75874), sequence (O75874 whole entry, the tested form may be a part): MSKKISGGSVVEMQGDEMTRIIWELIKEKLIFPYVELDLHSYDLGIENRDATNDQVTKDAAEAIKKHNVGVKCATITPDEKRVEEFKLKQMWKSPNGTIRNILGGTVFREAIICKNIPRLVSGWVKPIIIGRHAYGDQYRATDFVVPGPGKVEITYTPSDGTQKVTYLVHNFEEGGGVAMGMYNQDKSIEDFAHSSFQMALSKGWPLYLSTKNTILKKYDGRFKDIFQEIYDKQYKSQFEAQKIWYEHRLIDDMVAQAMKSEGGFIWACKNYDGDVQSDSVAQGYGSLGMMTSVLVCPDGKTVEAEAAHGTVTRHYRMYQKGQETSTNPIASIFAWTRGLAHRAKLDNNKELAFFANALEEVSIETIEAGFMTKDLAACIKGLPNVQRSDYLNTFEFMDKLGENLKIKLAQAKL

GSTP1 C48 (P09211) = GSTP1 C48 (P09211) (Homo sapiens, UniProt P09211); settings: for isoTOP-ABPP reactivity ratio, P09211_C48 / isoTOP-ABPP reactivity profile ratio, P09211_C48: 500 μm;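 as to isoTOP-ABPP reactivity profile ratio, P09211 C48: Heavy/light ratio DMSO over fragment-treated so higher means more cysteine engagement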
GSTP1 C48 (P09211), sequence (P09211 whole entry, the tested form may be a part): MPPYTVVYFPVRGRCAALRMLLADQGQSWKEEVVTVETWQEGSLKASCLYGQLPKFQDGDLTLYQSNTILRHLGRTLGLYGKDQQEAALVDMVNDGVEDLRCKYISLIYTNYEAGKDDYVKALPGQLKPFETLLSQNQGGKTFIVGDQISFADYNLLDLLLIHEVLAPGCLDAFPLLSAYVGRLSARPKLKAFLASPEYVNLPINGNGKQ

AIP C122 (O00170) = target: T4, AIP C122 (O00170) (Homo sapiens, UniProt O00170)
T4 sequence (O00170 1-330): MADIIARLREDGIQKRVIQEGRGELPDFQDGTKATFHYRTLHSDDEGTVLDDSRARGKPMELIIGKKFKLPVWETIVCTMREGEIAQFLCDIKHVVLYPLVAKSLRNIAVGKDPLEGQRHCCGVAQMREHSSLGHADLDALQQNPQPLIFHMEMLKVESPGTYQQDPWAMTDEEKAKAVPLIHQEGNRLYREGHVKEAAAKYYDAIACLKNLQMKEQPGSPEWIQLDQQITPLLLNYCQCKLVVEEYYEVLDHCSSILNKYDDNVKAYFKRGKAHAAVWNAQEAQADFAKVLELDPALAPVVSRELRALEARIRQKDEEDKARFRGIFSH

isoTOP-ABPP ratio (reactivity profile), Q16763_C118 (UBE2S C118 (Q16763); 500 μm in-vitro ramos): 0.8 | isoTOP-ABPP ratio (reactivity profile), Q16763_C118 (UBE2S C118 (Q16763); 500 μm in-vitro ramos_231): 1.0 | isoTOP-ABPP ratio (reactivity profile), P63244_C182 (GNB2L1 C182 (P63244); 500 μm in-vitro ramos): 1.1 | isoTOP-ABPP ratio (reactivity profile), P63244_C182 (GNB2L1 C182 (P63244); 500 μm in-vitro ramos_231): 1.0 | isoTOP-ABPP ratio (reactivity profile), P15374_C95 (UCHL3 C95 (P15374); 500 μm in-vitro ramos): 0.9 | isoTOP-ABPP ratio (reactivity profile), P15374_C95 (UCHL3 C95 (P15374); 500 μm in-vitro ramos_231): 1.1 | isoTOP-ABPP ratio (reactivity profile), Q9UPT9_C171 (USP22 C171 (Q9UPT9); 500 μm in-vitro ramos): 1.3 | isoTOP-ABPP ratio (reactivity profile), Q9Y3Z3_C522 (SAMHD1 C522 (Q9Y3Z3); 500 μm in-vitro ramos_231): 1.0 | isoTOP-ABPP ratio (reactivity profile), O75362_C286 (ZNF217 C286 (O75362); 500 μm in-vitro ramos): 1.0 | isoTOP-ABPP ratio (reactivity profile), O75362_C286 (ZNF217 C286 (O75362); 500 μm in-vitro ramos_231): 1.0 | isoTOP-ABPP ratio (reactivity profile), O75874_C269 (IDH1 C269 (O75874); 500 μm in-vitro ramos_231): 1.1 | isoTOP-ABPP ratio (reactivity profile), P09211_C48 (GSTP1 C48 (P09211); 500 μm in-vitro ramos): 1.5 | isoTOP-ABPP ratio (reactivity profile), P09211_C48 (GSTP1 C48 (P09211); 500 μm in-vitro ramos_231): 1.3 | isoTOP-ABPP ratio (reactivity profile), O00170_C122 (AIP C122 (O00170); 500 μm in-vitro ramos): 1.2 | isoTOP-ABPP ratio (reactivity profile), O00170_C122 (AIP C122 (O00170); 500 μm in-vitro ramos_231): 0.9
Structure (SMILES): COc1ccccc1OCCNC(=O)CCl [compound 28]

isoTOP-ABPP ratio (reactivity profile), Q16763_C118 (UBE2S C118 (Q16763); 500 μm in-vitro ramos): 0.7 | isoTOP-ABPP reactivity ratio, Q16763_C118 (UBE2S C118 (Q16763); 500 μm, in-vitro_ramos): 1.1 | isoTOP-ABPP ratio (reactivity profile), P63244_C182 (GNB2L1 C182 (P63244); 500 μm in-vitro ramos): 1.2 | isoTOP-ABPP reactivity ratio, P63244_C182 (GNB2L1 C182 (P63244); in-vitro_ramos): 1.6 | isoTOP-ABPP ratio (reactivity profile), P15374_C95 (UCHL3 C95 (P15374); 500 μm in-vitro ramos): 0.7 | isoTOP-ABPP reactivity ratio, P15374_C95 (UCHL3 C95 (P15374); 500 μm, in-vitro_ramos): 1.0 | isoTOP-ABPP reactivity ratio, Q9UPT9_C171 (USP22 C171 (Q9UPT9); 500 μm, in-vitro_ramos): 2.3 | isoTOP-ABPP ratio (reactivity profile), Q9Y3Z3_C522 (SAMHD1 C522 (Q9Y3Z3); 500 μm in-vitro ramos): 0.7 | isoTOP-ABPP reactivity ratio, O75362_C286 (ZNF217 C286 (O75362); in-vitro_ramos): 2.1 | isoTOP-ABPP ratio (reactivity profile), O75874_C269 (IDH1 C269 (O75874); 500 μm in-vitro ramos): 0.7 | isoTOP-ABPP ratio (reactivity profile), P09211_C48 (GSTP1 C48 (P09211); 500 μm in-vitro ramos): 1.4 | isoTOP-ABPP reactivity ratio, P09211_C48 (GSTP1 C48 (P09211); in-vitro_ramos): 1.2 | isoTOP-ABPP ratio (reactivity profile), O00170_C122 (AIP C122 (O00170); 500 μm in-vitro ramos): 1.1 | isoTOP-ABPP reactivity ratio, O00170_C122 (AIP C122 (O00170); 500 μm, in-vitro_ramos): 2.0
Structure (SMILES): CCN(CC)c1ccc(S(N)(=O)=O)cc1NC(=O)CCl [compound 30]

isoTOP-ABPP reactivity ratio, Q16763_C118 (UBE2S C118 (Q16763); 500 μm, in-vitro_ramos): 3.4 | isoTOP-ABPP reactivity ratio, P63244_C182 (GNB2L1 C182 (P63244); in-vitro_ramos): 4.7 | isoTOP-ABPP reactivity ratio, P15374_C95 (UCHL3 C95 (P15374); 500 μm, in-vitro_ramos): 0.8 | isoTOP-ABPP reactivity ratio, P15374_C95 (UCHL3 C95 (P15374); 500 μm, in-vitro_ramos_231): 1.0 | isoTOP-ABPP reactivity ratio, Q9UPT9_C171 (USP22 C171 (Q9UPT9); 500 μm, in-vitro_ramos): 1.4 | isoTOP-ABPP reactivity ratio, Q9UPT9_C171 (USP22 C171 (Q9UPT9); 500 μm, in-vitro_ramos_231): 3.0 | isoTOP-ABPP reactivity ratio, Q9Y3Z3_C522 (SAMHD1 C522 (Q9Y3Z3); 500 μm, in-vitro_ramos_231): 0.9 | isoTOP-ABPP reactivity ratio, O75362_C286 (ZNF217 C286 (O75362); in-vitro_ramos): 0.6 | isoTOP-ABPP reactivity ratio, O75874_C269 (IDH1 C269 (O75874); 500 μm, in-vitro_ramos_231): 0.8 | isoTOP-ABPP reactivity ratio, P09211_C48 (GSTP1 C48 (P09211); in-vitro_ramos): 0.9 | isoTOP-ABPP reactivity ratio, P09211_C48 (GSTP1 C48 (P09211); in-vitro_ramos_231): 1.3 | isoTOP-ABPP reactivity ratio, O00170_C122 (AIP C122 (O00170); 500 μm, in-vitro_ramos): 1.0 | isoTOP-ABPP reactivity ratio, O00170_C122 (AIP C122 (O00170); 500 μm, in-vitro_ramos_231): 1.1
Structure (SMILES): Cc1ccc(C=C(C#N)C(=O)NCCN2CCOCC2)cc1 [compound 41]

isoTOP-ABPP reactivity profile ratio, Q16763_C118 (UBE2S C118 (Q16763); 500 μm, in-vitro_ramos): 1.0 | isoTOP-ABPP reactivity profile ratio, P63244_C182 (GNB2L1 C182 (P63244); in-vitro_ramos): 0.9 | isoTOP-ABPP reactivity profile ratio, P63244_C182 (GNB2L1 C182 (P63244); in-vitro_ramos_231): 0.9 | isoTOP-ABPP reactivity profile ratio, P15374_C95 (UCHL3 C95 (P15374); 500 μm, in-vitro_ramos): 20.0 | isoTOP-ABPP reactivity profile ratio, Q9UPT9_C171 (USP22 C171 (Q9UPT9); 500 μm, in-vitro_ramos): 4.5 | isoTOP-ABPP reactivity profile ratio, Q9Y3Z3_C522 (SAMHD1 C522 (Q9Y3Z3); 500 μm, in-vitro_ramos_231): 2.2 | isoTOP-ABPP reactivity profile ratio, O75362_C286 (ZNF217 C286 (O75362); in-vitro_ramos): 1.2 | isoTOP-ABPP reactivity profile ratio, O75362_C286 (ZNF217 C286 (O75362); in-vitro_ramos_231): 1.9 | isoTOP-ABPP reactivity profile ratio, O75874_C269 (IDH1 C269 (O75874); 500 μm, in-vitro_ramos_231): 0.8 | isoTOP-ABPP reactivity profile ratio, P09211_C48 (GSTP1 C48 (P09211); in-vitro_ramos): 2.2 | isoTOP-ABPP reactivity profile ratio, P09211_C48 (GSTP1 C48 (P09211); in-vitro_ramos_231): 4.1 | isoTOP-ABPP reactivity profile ratio, O00170_C122 (AIP C122 (O00170); 500 μm, in-vitro_ramos): 2.1
Structure (SMILES): COc1cc(NC(=O)CCl)cc(OC)c1 [compound 43]
